The source of these data is ChEMBL document CHEMBL1147881, “Synthesis and herbicidal activity of novel pyrazolo[3,4-d]pyrimidin-4-one derivatives containing aryloxyphenoxypropionate moieties” (2007).

By inhibition is commonly meant the change of the read-out against control, counted positive when it falls.

Assay type in all cases: functional
The test system of assay [1] is Echinochloa crus-galli. The assay can be described thus: Herbicidal activity against barnyard grass assessed as inhibition of root growth at 100 mg/L relative to control.
For assay [2], the system named is Brassica napus. As to the kind of experiment: Herbicidal activity against rape assessed as inhibition of stalk growth at 100 mg/L relative to control.
Assay [3] relates to Brassica napus. As to the kind of experiment: Herbicidal activity against rape assessed as inhibition of stalk growth at 10 mg/L relative to control.
The subject of assay [4] is Echinochloa crus-galli. The assay can be described thus: Herbicidal activity against barnyard grass assessed as inhibition of stalk growth at 10 mg/L relative to control.
Assay [5] relates to Echinochloa crus-galli. The assay can be described thus: Herbicidal activity against barnyard grass assessed as inhibition of stalk growth at 100 mg/L relative to control.
Assay [6] concerns Brassica napus. The assay can be described thus: Herbicidal activity against rape assessed as inhibition of root growth at 10 mg/L relative to control.
Assay [7] concerns Echinochloa crus-galli. The assay can be described thus: Herbicidal activity against barnyard grass assessed as inhibition of root growth at 10 mg/L relative to control.
For assay [8], the system named is Brassica napus. As to the kind of experiment: Herbicidal activity against rape assessed as inhibition of root growth at 100 mg/L relative to control.

Take `CCCOC(=O)C(C)Oc1ccc(Oc2nc3c(c(SC)nn3-c3ccccc3)c(=O)n2C(=O)Nc2ccccc2Cl)cc1` (stereo not drawn): the inhibition at 100 µg/mL in assay [1] was 64.3%; in assay [2], 8.5%; in assay [5], 25.8%; in assay [8] it was 36.7%. For the same compound, the inhibition at 10 µg/mL came to 10.6% in assay [3], 25.8% in assay [4], 5.5% in assay [6] and 53.4% in assay [7].

As for `COC(=O)C(C)Oc1ccc(Oc2nc3c(c(SC)nn3-c3ccccc3)c(=O)n2C(=O)Nc2ccccc2)cc1` (stereo not drawn), the inhibition at 100 µg/mL in assay [1] was 93.5%; in assay [2], 76.9%; in assay [5], 68.9%; in assay [8], 96.1%. The inhibition at 10 µg/mL in assay [3] came to 20.5%; in assay [4], 44.8%; in assay [6], 40.2%; in assay [7], 63%.

Take `CCOC(=O)C(C)Oc1ccc(Oc2nc3c(c(SC)nn3-c3ccccc3)c(=O)n2C(=O)Nc2ccccc2)cc1` (stereo not drawn): the inhibition at 100 µg/mL in assay [1] is 88.5%; in assay [2], 46.2%; in assay [5], 32.3%; in assay [8], 86.1%. Besides, the inhibition at 10 µg/mL in assay [3] was determined as 12.9%; in assay [4], 12.9%; in assay [6] it was 57.4%; in assay [7] it was 57.7%.

For `COC(=O)C(C)Oc1ccc(Oc2nc3c(c(S(C)(=O)=O)nn3-c3ccccc3)c(=O)n2C(=O)Nc2ccccc2)cc1` (stereo not drawn), the inhibition at 100 µg/mL in assay [1] came to 93.3%; in assay [2], 48.9%; in assay [5], 31.6%; in assay [8], 80.4%. Also, the inhibition at 10 µg/mL in assay [3] turned out to be 13.3%; in assay [4], 5.3%; in assay [6] it was 25%; in assay [7], 66.7%.

Turning to `COC(=O)C(C)Oc1ccc(Oc2nc3c(c(S(C)(=O)=O)nn3-c3ccccc3)c(=O)n2C(=O)Nc2ccccc2F)cc1` (stereo not drawn), the inhibition at 100 µg/mL in assay [1] was 53.3%; in assay [2], 0%; in assay [5] it was -21%; in assay [8], 28%. In addition, the inhibition at 10 µg/mL in assay [3] was 0%; in assay [4], 10.5%; in assay [6], 16.3%; in assay [7], 33.3%.

For `CCOC(=O)C(C)Oc1ccc(Oc2nc3c(c(S(C)(=O)=O)nn3-c3ccccc3)c(=O)n2C(=O)Nc2cccc(C)c2)cc1` (stereo not drawn), the inhibition at 100 µg/mL stood at 95.6% in assay [1], 74.4% in assay [2], 51.7% in assay [5] and 98% in assay [8]. For the same compound, the inhibition at 10 µg/mL turned out to be 17.9% in assay [3], 3.4% in assay [4], 51% in assay [6] and 54.3% in assay [7].

As for `CCOC(=O)C(C)Oc1ccc(Oc2nc3c(c(SC)nn3-c3ccccc3)c(=O)n2C(=O)Nc2cccc(C)c2)cc1` (stereo not drawn), the inhibition at 100 µg/mL in assay [1] was found to be 88.5%; in assay [2], 63.5%; in assay [5], 0%; in assay [8] it was 97%. Besides, the inhibition at 10 µg/mL is 9.6% in assay [3], -12.9% in assay [4], 46.5% in assay [6] and 59.6% in assay [7].

Take `CCOC(=O)C(C)Oc1ccc(Oc2nc3c(c(SCc4ccccc4)nn3-c3ccccc3)c(=O)n2C(=O)Nc2cccc(C)c2)cc1` (stereo not drawn): the inhibition at 100 µg/mL is 61.9% in assay [1], 10.6% in assay [2], -6.4% in assay [5] and 32.2% in assay [8]. Besides, the inhibition at 10 µg/mL is -2.1% in assay [3], -6.4% in assay [4], 24.4% in assay [6] and 33.3% in assay [7].

`CCOC(=O)COc1ccc(Oc2nc3c(c(SCc4ccccc4)nn3-c3ccccc3)c(=O)n2C(=O)Nc2cccc(C)c2)cc1`: the inhibition at 100 µg/mL is 75.5% in assay [1], 24% in assay [2], -10.5% in assay [5] and 64.1% in assay [8]. The inhibition at 10 µg/mL in assay [3] was 20%; in assay [4], 5.3%; in assay [6] it was 20.6%; in assay [7], 66.7%.

On to `CCCOC(=O)C(C)Oc1ccc(Oc2nc3c(c(S(C)(=O)=O)nn3-c3ccccc3)c(=O)n2C(=O)Nc2ccccc2Cl)cc1` (stereo not drawn), for which the inhibition at 100 µg/mL in assay [1] was 80%; in assay [2] it was 42.2%; in assay [5] it was 23.3%; in assay [8] it was 67.4%. Moreover, the inhibition at 10 µg/mL in assay [3] was -17.8%; in assay [4], 16.7%; in assay [6], 17.4%; in assay [7], 50%.

Turning to `CCOC(=O)C(C)Oc1ccc(Oc2nc3c(c(S(=O)(=O)Cc4ccccc4)nn3-c3ccccc3)c(=O)n2C(=O)Nc2cccc(C)c2)cc1` (stereo not drawn), the inhibition at 100 µg/mL in assay [1] amounted to 72.5%; in assay [2], 6.7%; in assay [5] it was 16.7%; in assay [8], 34.8%. Also, the inhibition at 10 µg/mL in assay [3] worked out at 6.7%; in assay [4] it was 13.3%; in assay [6] it was 9.8%; in assay [7], 50%.
